The subject of assay [1] is HUVEC. As to the kind of experiment: Test system for apoptotically active peptides: TSP-1-induced apoptosis of cultivated HUVEC, DAPI dyeing. The format is cell-based, human. The procedure:
For the purposes of the disclosure, the term “apoptotically active” will mean that the addition of the respective substance to the test system shown in Examples 5 and 6 generates either a positive or negative inhibition index. Particularly endothelial cells, preferably especially HUVEC, are to this end cultivated in a medium which includes 1 μg TSP-1 per ml. The percentage apoptosis values of such positive control will then serve, as shown in the examples, for the calculation of the inhibition index for those substances which are used as potential inhibitors together with the inductor TSP-1 in parallel tests.
(§1) Cultivation of HUVEC takes place in gelatin-coated culture vessels at 37° C., 5% CO2 and water vapor saturated atmosphere. The culture medium is exchanged every two to three days; in case of confluence, the cells are passaged at a cleavage rate of from 1:3 to 1:5. HUVEC grow strictly contact-inhibited and form unilaminar cell bed having the typical cobble-stone morphology. In case of confluence, the cultures reach cell densities of 4-9×10^4 cells/cm^2. For apoptosis examinations, HUVEC cultures of passages 1-4 are exclusively employed.
(§2) The culture supernatant of a Petri dish is sucked off, the cell bed is fixed on ice for 15 minutes with 1 ml formaldehyde solution, is washed twice with 2 ml PBS, is added 0.5 ml DAPI solution for 15 minutes, is washed with PBS and evaluated under the fluorescence microscope. A UV filter set and a 20× and a 40× objective are used. 500 to 1000 cells are selected at random and the cells having apoptotic nuclei are counted.
(§3) The apoptosis index is calculated in accordance with the following formula: Apoptosis index [%]=number of apoptotic cells/total cell number×100 Flow Cytometry: Solutions: • PBS • Medium • Ethanol (reagent-grade) ice-cooled (−20° C.) • DAPI buffer • DAPI stock solution • DAPI dye solution Procedure:
The culture supernatant is sucked off and the cells are trypsinized without washing them with PBS. The cell suspension is received in medium, is counted, is centrifuged at 800×g for 5 minutes, the sediment is re-suspended in 0.5 ml IF and is dripped into 1.5 ml ice-cold ethanol. The suspension is stored overnight at […]. After renewed centrifugation and re-suspending of the sediment in 2 ml PBS, there follows a half-hour incubation at 37° C., further centrifugation, re-suspending of the sediment in 5 ml DAPI solution, and counting in the flow cytometer at a counting rate of 50 to 300 events per second. […] Caused by the decreasing absolute DNS amount per cell, apoptotic cells appear in a sub-G1 peak [Darzynklewicz Z. et al., Cytometry, 13, 795-808 (1992); Zamai L. et al., Cytometry, 14, 891-897 (1993)].
The cells were cultivated as described in Example 1. The cells are seeded in the corresponding culture vessels (e.g. 24-hole plate/0.5 ml per cavity) and, having obtained complete confluence, are employed for the test. The cells are provided with new medium: • (a) fresh culture medium [Base rate of apoptosis], • (b) fresh medium with 1 μg/ml TSP-1 [Apoptosis-induced substance; control], • (c) medium (b)+peptide of SEQ ID NO 1, 1 mM • (d) medium (b)+peptide of SEQ ID NO 2, 1 mM • (e) medium (b)+peptide of SEQ ID NO 3, 1 mM • (f) medium (b)+peptide of SEQ ID NO 4, 1 mM • (g) medium (b)+peptide of SEQ ID NO 7, 1 mM • (h) medium (b)+peptide of SEQ ID NO 8, 1 mM • (i) medium (b)+peptide of SEQ ID NO 9, 1 mM • (j) medium (b)+peptide of SEQ ID NO 10, 1 mM • (k) medium (b)+peptide of SEQ ID NO 11, 1 mM • (l) medium (b)+peptide of SEQ ID NO 12, 1 mM • (m) medium (b)+peptide of SEQ ID NO 13, 1 mM • (n) medium (b)+peptide of SEQ ID NO 14, 1 mM • (o) medium (b)+peptide of SEQ ID NO 15, 1 mM • (p) medium (b)+peptide of SEQ ID NO 16, 1 mM • (q) medium (b)+peptide of SEQ ID NO 17, 1 mM • (r) medium (b)+peptide of SEQ ID NO 18, 1 mM • (s) medium (b)+peptide of SEQ ID NO 19, 1 mM […]

For assay [2], the system named is HUVEC. Nature of the assay: Induction of apoptosis at HUVEC with TSP-1. The format is cell-based, human. The following applies: confluent HUVEC, fresh medium + TSP-1 1 μg/ml; fresh medium alone 0.9 ± 0.1. The procedure: as §1, §2, §3
The cells are cultivated as described in Example 1. Having obtained complete confluence, the cells are used for the test. […]

Setting [3] is: 1 μg/ml TSP-1 + peptide 1 mM, 24 hours, positive = substance inhibited, negative = substance induced apoptosis.
Where [4] appears, read: medium with 1 μg/ml TSP-1 + peptide 1 mM, 24 hours, mean ± SD of three independent experiments, control 3.28 ± 0.55.
Setting [5] is: lengthened peptide sequences, TSP-1 + peptide, tests as in Example 5, control 8.73 ± 0.43.
[6] abbreviates: lengthened peptide sequences, TSP-1 + peptide, tests as in Example 5, positive = substance inhibited.

Non-standard residues stand in square brackets, D forms with d. No end group written: not given here.

From patent US9017693B2, “Apoptotically active peptides” (Cytotools AG, priority 2001, dated 2015) come the findings set out here.

As for R-L-Y-V-V-M (RLYVVM) [SEQ ID NO 14], in assay [1] (setting [3]), the “Inhibition index [%]” value was −95.4 ± 6.1%. Moreover, in assay [1] (setting [4]), the “Apoptosis index [%]” value was 6.41 ± 0.63%.
Take “K-R-A-Y-V-V-M-W-K-K (KRAYVVMWLL) [SEQ ID NO 5]”: in assay [1] (setting [5]), the “Apoptosis index [%]” value was 0.37 ± 0.22%. The “Inhibition index [%]” value in assay [1] (setting [6]) is given as “+95.8 ± 2.6%”.
On to R-P-Y-V-V-M (RPYVVM) [SEQ ID NO 15], for which, in assay [1] (setting [3]), the “Inhibition index [%]” value is given as −72.8 ± 6.4%. The “Apoptosis index [%]” value in assay [1] (setting [4]) stood at 5.67 ± 0.54%.
For R-T-Y-V-V-M (RTYVVM) [SEQ ID NO 9], the “Inhibition index [%]” value in assay [1] (setting [3]) was “+44.5 ± 9.8%”. Also, the “Apoptosis index [%]” value in assay [1] (setting [4]) is on record as 1.86 ± 0.36%.
For R-N-Y-V-V-M (RNYVVM) [SEQ ID NO 10] the same measures were “+39.5 ± 15.8%” and 2.06 ± 0.53%.
For R-A-Y-V-V-A (RAYVVA) [SEQ ID NO 13] the same measures were −51.8 ± 6.0% and 4.98 ± 0.3%.
Take R-C-Y-V-V-M (RCYVVM) [SEQ ID NO 17]: the “Inhibition index [%]” value in assay [1] (setting [3]) was −326.5 ± 3.6%. Further, the “Apoptosis index [%]” value in assay [1] (setting [4]) is on record as 13.97 ± 0.35%.
As for R-Y-Y-V-V-M (RYYVVM) [SEQ ID NO 3], in assay [1] (setting [3]), the “Inhibition index [%]” value is listed as “+74.7 ± 5.0%”. The “Apoptosis index [%]” value in assay [1] (setting [4]) stood at 0.85 ± 0.17%.
As for “K-R-E-Y-V-V-M-W-K-K (LREYVVMWKK) [SEQ ID NO 6]”, the “Apoptosis index [%]” value in assay [1] (setting [5]) amounted to 0.48 ± 0.22%. For the same substance, in assay [1] (setting [6]), the “Inhibition index [%]” value is recorded as “+94.5 ± 2.5%”.
Take R-D-Y-V-V-M (RDYVVM) [SEQ ID NO 11]: in assay [1] (setting [3]), the “Inhibition index [%]” value is reported as “+37.3 ± 14.0%”. The “Apoptosis index [%]” value in assay [1] (setting [4]) is recorded as 2.12 ± 0.47%.
For R-E-Y-V-V-M (REYVVM) [SEQ ID NO 4] the same measures were “+69.0 ± 8.9%” and 1.04 ± 0.30%.
In the same order, the values of “m-v-v-y-a-r ([dM][dV][dV][dY][dA][dR]) [SEQ ID NO 19]” are −247.1 ± 5.4% and 11.4 ± 0.63%.
For R-M-Y-V-V-M (RMYVVM) [SEQ ID NO 8] the same measures were “+44.2 ± 11.6%” and 1.84 ± 0.39%.
In the case of R-A-Y-V-V-M (RAYVVM) [SEQ ID NO 1], in assay [1] (setting [3]), the “Inhibition index [%]” value is reported as “+75.3 ± 7.5%”. Moreover, the “Apoptosis index [%]” value in assay [1] (setting [4]) was 0.83 ± 0.24%.
In the same order, the values of R-W-Y-V-V-M (RWYVVM) [SEQ ID NO 2] are “+61.9 ± 7.7%” and 1.30 ± 0.26%.
For “TSP-1: thrombospondin 1, apoptosis-inducing substance added at 1 μg/ml to HUVEC medium as inductor/control”, in assay [2], the “Apoptosis rate (%) after 24 h” value came out at 3.0 ± 0.4%.
For R-G-Y-V-V-M (RGYVVM) [SEQ ID NO 7], in assay [1] (setting [3]), the “Inhibition index [%]” value is “+46.4 ± 11.1%”. Besides, the “Apoptosis index [%]” value in assay [1] (setting [4]) worked out at 1.83 ± 0.37%.
In the same order, the values of R-S-Y-V-V-M (RSYVVM) [SEQ ID NO 16] are −108.4 ± 3.7% and 6.86 ± 0.37%.
In the same order, the values of M-V-V-Y-F-R (MVVYFR) [SEQ ID NO 12] are −34.1 ± 6.2% and 4.40 ± 0.53%.
In the same order, the values of “m-v-v-y-f-r ([dM][dV][dV][dY][dF][dR]) [SEQ ID NO 18]” are −345.1 ± 5.1% and 14.6 ± 0.75%.
